# According to patent US10258040B2, “Use of combinations comprising host defense inducers and biological control agents for controlling bacterial harmful organisms in useful plants” (Bayer CropScience Aktiengesellschaft, priority 2013, dated 2019):
# Tests used:
# [1] = tested on: Pseudomonas syringae pv. tomato; assay: in vivo preventive test on Pseudomonas syringae pv. tomato (tomatoes); conditions: sprayed one week before inoculation, evaluated 1 week after inoculation
# Procedure: When the percentage of inhibition observed for the combination is greater than E, there is a synergistic effect. • Solvent: deionized water • tested compounds: […] To test for preventive activity, young plants are sprayed with the prepared compounds at three different rates of application. One week after application, the plants are inoculated with an aqueous suspension of Pseudomonas syringae pv. tomato. Inoculated plants are placed in a greenhouse chamber at 25° C. at a relative atmospheric humidity of 90%.
# Potato = assay: potato field seed/soil treatment test: plant and stem number, tuber weight, tuber grading; conditions: T2: dose 12/100 kg seed, ST
# Procedure: (§1) • Solvent: water • Tested compounds: Isotianil (FS200 formulation) at 30/24/12 ml/100 KG Potato Seed • Penflufen (Emesto FS240 formulation) at 10 ml/100 KG Potato Seed • Serenade ASO (Bacillus subtilis QST 713 strain/SC/1.34%) 5 Litres/ha (200 ml/area sown under 100 KG Seed)
# (§2) To test for seed (tuber) treatment activity mixtures of Isotianil FS200 and Serenade ASO SC in combination with an optional further fungicide, ie Potato tubers are selected having reasonable Streptomyces scabies infestation. Seed was treated by spray on the tubers with hand knapsack sprayer using total volume of slurry 1500 ml/100 Kg Seed. Seed treatment was done with Isotianil FS 200 alone and in tank-mix with Penflufen.
# (§3) Serenade ASO SC 1.34% @ 5000 ml/ha of formulated product was sprayed in the furrows just before the sowing of seeds. 100 KG seeds are sown on an area of 400 m^2 and Serenade ASO @ 200 ml formulated product was used in this test. Seed treated with Isotianil and optional Penflufen as method described above was used in combination with soil application of Serenade ASO in furrows before sowing. This study was conducted in natural field conditions chamber and observations for Streptomyces scabies infestation on potato was taken at the time of harvest.
# (§4) The test is evaluated at harvest of potato crop.
# Streptomyces scabies = assay: in vivo preventive (seed growth test) test on Streptomyces scabies (potato), scab efficacy at harvest; conditions: T2: dose 12/100 kg seed, ST, natural field conditions
# Procedure: as §1, §2, §3, §4
structure (smiles),measurement,setting,value
"N#Cc1ccccc1NC(=O)c1snc(Cl)c1Cl [(A.2) Isotianil, isotianil]",Efficacy in % found,[1]; application rate 50 g a.i.,6%
same,Efficacy in % found,[1]; application rate 100 g a.i.,0%
same,Efficacy in % found,[1]; application rate 200 g a.i.,0%
same,% age Grading Large,Potato; potato tubers at harvest,34%
same,% age Grading Small,Potato; potato tubers at harvest,29%
same,% age Grading medium,Potato; potato tubers at harvest,37%
same,"% age increase/dicrease over conrol, No. of Plants/5 meter","Potato; potato, field",3%
same,"% age increase/dicrease over conrol, No. of stems/meter","Potato; potato, field",7%
same,"% age increase/dicrease over conrol, Weight of tuber/5 meter","Potato; potato, field",11%
same,% age Efficacy Scab,Streptomyces scabies,68%
